The Kd is the equilibrium constant for the complex coming apart. A lower Kd goes with higher affinity.

Kd data for four substances are collected here from article PMC4520770 (Journal of molecular biology, 2015).

No end group written: not given here.

One experiment addresses BHRF1 (Epstein-Barr virus, UniProt P03182). The experiment is described as follows: biochemical. It counts as binding, Epstein-Barr herpesvirus (EBV).
The target in another experiment is KSBcl-2 (Human herpesvirus 8 type P, UniProt F5HGJ3). The experiment is described as follows: biochemical. Format: binding, Kaposi's sarcoma-associated herpesvirus (KSHV).
Chain of KSBcl-2 (F5HGJ3 whole entry): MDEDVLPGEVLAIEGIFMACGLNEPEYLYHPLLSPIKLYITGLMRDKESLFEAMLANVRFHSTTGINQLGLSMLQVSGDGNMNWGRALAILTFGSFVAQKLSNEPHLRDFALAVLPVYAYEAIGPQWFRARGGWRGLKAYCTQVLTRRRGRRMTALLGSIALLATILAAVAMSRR
The target of a further experiment is Mcl-1 (Homo sapiens, UniProt Q07820). The experiment is described as follows: Direct fluorescence anisotropy binding to Mcl-1. (In general: In fluorescence polarisation assays a small probe gives low polarisation when free and higher when bound to something large.)
Chain of Mcl-1 (Q07820 whole entry): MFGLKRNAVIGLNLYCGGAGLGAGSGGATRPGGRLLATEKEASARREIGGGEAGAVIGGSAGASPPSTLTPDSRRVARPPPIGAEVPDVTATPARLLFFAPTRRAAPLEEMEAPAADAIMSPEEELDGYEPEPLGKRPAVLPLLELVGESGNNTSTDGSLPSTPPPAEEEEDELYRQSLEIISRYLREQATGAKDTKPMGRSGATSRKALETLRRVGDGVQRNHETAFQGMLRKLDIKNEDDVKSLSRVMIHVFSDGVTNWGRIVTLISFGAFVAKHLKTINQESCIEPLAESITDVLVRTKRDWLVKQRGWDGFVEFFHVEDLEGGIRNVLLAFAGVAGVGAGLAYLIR

Chain of BHRF1 (P03182 whole entry): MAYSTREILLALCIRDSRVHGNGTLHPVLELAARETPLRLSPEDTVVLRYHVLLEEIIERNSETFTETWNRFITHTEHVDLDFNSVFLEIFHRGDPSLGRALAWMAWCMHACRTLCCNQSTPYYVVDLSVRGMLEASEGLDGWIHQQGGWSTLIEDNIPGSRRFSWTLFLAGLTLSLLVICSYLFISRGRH

In the case of “RPIIWIGQEISRVGDRENAYKAR-NH2 [BL6-22_Y4eK]”, the Kd on BHRF1 is 30 ± 17 nM; on KSBcl-2 it was 750 ± 300 nM; at Mcl-1 it was around 2200 nM.

In the case of RPNIWLTQRLQRTGDGLNAYYAR-NH2 [KScomp], the Kd on BHRF1 is above 1000 nM; at KSBcl-2, 13 ± 7.3 nM; at Mcl-1 it was 510 ± 190 nM.

As for “RPQIWIHQGLQRLGAGLNAYYAR-NH2 [KL6-7_D3fA]”, the values for the Kd on BHRF1, on KSBcl-2 and on Mcl-1 were above 1000 nM, 180 ± 80 nM and above 5000 nM, respectively.

As for “RPQIWIHQGLQRLGDGLNAYKAR-NH2 [KL6-7_Y4eK]”, the Kd on BHRF1 is above 1000 nM; at KSBcl-2 it was 2.9 ± 1.3 nM; at Mcl-1, around 7800 nM.
